Data from ChEMBL document CHEMBL4420072, “Method for screening anti-cancer compounds inhibiting function of TM4SF5 and anti-cancer composition containing chalcone compounds” (2013).
Activity calls are given as the source filed them.

How the values were obtained:
[1] = molecular target: T1, Transmembrane 4 L6 family member 5 (Homo sapiens) (UniProt O14894); test: Activation of TM4SF5 in human SNU449Tp cells in monolayer arrangement assessed as stimulation of cell growth at 20 uM incubated for 24 hrs by optical microscopy; type: cell-based
T1 sequence (whole entry): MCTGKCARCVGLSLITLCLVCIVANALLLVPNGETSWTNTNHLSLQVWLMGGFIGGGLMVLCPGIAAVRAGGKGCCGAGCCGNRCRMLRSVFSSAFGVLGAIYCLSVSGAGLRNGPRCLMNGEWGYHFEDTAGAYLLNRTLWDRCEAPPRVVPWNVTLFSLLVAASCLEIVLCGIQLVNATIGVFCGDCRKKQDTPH

[2] = molecular target: T1, Transmembrane 4 L6 family member 5 (Homo sapiens); test: Activation of TM4SF5 in human SNU449Tp cells in multilayer arrangement assessed as stimulation of cell growth at 20 uM incubated for 24 hrs by optical microscopy; type: cell-based
[3] = molecular target: T1, Transmembrane 4 L6 family member 5 (Homo sapiens); test: Activation of TM4SF5 in human SNU449Tp cells in monolayer arrangement assessed as effect on cell morphology at 20 uM incubated for 24 hrs by optical microscopy; type: cell-based
[4] = molecular target: T1, Transmembrane 4 L6 family member 5 (Homo sapiens); test: Inhibition of TM4SF5 in human SNU449Tp cells assessed as effect on cell morphology at 20 uM incubated for 24 hrs by optical microscopy; type: cell-based
[5] = molecular target: T1, Transmembrane 4 L6 family member 5 (Homo sapiens); test: Inhibition of TM4SF5 in human SNU449Tp cells assessed as inhibition of S-phase progression at 20 uM followed by BrdU addition and incubated for 24 hrs by immunofluorescent staining; type: cell-based
[6] = molecular target: T1, Transmembrane 4 L6 family member 5 (Homo sapiens); test: Inhibition of TM4SF5 in human SNU449Tp cells assessed as restoration of cell-cell contact at 20 uM by E-cadherin and beta-catenin detection based immunofluorescent staining
[7] = Growth inhibition of TM4SF5 deficient human SNU449Cp cells assessed as reduction in cell number at 5 to 40 uM incubated up to 2 days; settings: 48 h
[8] = molecular target: T1, Transmembrane 4 L6 family member 5 (Homo sapiens); test: Inhibition of TM4SF5 in human SNU449Tp cells assessed as reduction in p27Kip1 expression by Western blotting analysis; type: cell-based
[9] = molecular target: T1, Transmembrane 4 L6 family member 5 (Homo sapiens); test: Inhibition of TM4SF5 in human SNU449Tp cells assessed as reduction in pS10 p27Kip1 expression by Western blotting analysis; type: cell-based
[10] = molecular target: T1, Transmembrane 4 L6 family member 5 (Homo sapiens); test: Inhibition of TM4SF5 in human SNU449Tp cells assessed as reduction in pY77 FAK expression by Western blotting analysis; type: cell-based
[11] = molecular target: T1, Transmembrane 4 L6 family member 5 (Homo sapiens); test: Inhibition of TM4SF5 in human SNU449Tp cells assessed as reduction in alpha-SMA expression by Western blotting analysis; type: cell-based
[12] = molecular target: T1, Transmembrane 4 L6 family member 5 (Homo sapiens); test: Inhibition of TM4SF5 in human SNU449Tp cells assessed as reduction in cytosolic p27Kip1 expression by immunofluorescent staining; type: cell-based
[13] = molecular target: T1, Transmembrane 4 L6 family member 5 (Homo sapiens); test: Inhibition of TM4SF5 in human SNU449Tp cells assessed as restoration of reduced RhoA activity; type: cell-based
[14] = molecular target: T1, Transmembrane 4 L6 family member 5 (Homo sapiens); test: Inhibition of TM4SF5 in human SNU449Tp cells assessed as induction of return of elongated cell shape to polygonal shape by DAPI staining based assay
[15] = molecular target: T1, Transmembrane 4 L6 family member 5 (Homo sapiens); test: Inhibition of TM4SF5 in human SNU449Tp cells assessed as increase in sensitivity of N-linked glycosylated region of TM4SF5 to PNGase F; type: cell-based
[16] = test system: SNU-398; test: Growth inhibition of TM4SF5 deficient human SNU398 cells assessed as reduction in cell number at 1 to 20 ug/ml incubated up to 3 days; type: cell-based; settings: snu-398, 72 h
[17] = molecular target: T1, Transmembrane 4 L6 family member 5 (Homo sapiens); test: Inhibition of TM4SF5 in human SNU368 cells assessed as reduction in cell number at 1 to 20 ug/ml incubated up to 3 days; type: cell-based
[18] = molecular target: T1, Transmembrane 4 L6 family member 5 (Homo sapiens); test: Inhibition of TM4SF5 in human HepG2 cells assessed as reduction in cell number at 1 to 20 ug/ml incubated up to 3 days; type: cell-based
[19] = molecular target: T1, Transmembrane 4 L6 family member 5 (Homo sapiens); test: Inhibition of TM4SF5 in human HuH7 cells assessed as reduction in cell number at 1 to 20 ug/ml incubated up to 3 days; type: cell-based
[20] = molecular target: T1, Transmembrane 4 L6 family member 5 (Homo sapiens); test: Inhibition of TM4SF5 in human SNU449Tp cells assessed as reduction in cell migration at 20 uM incubated for 18 hrs by Transwell chamber based assay
[21] = molecular target: T1, Transmembrane 4 L6 family member 5 (Homo sapiens); test: Inhibition of TM4SF5 in human SNU449Tp cells assessed as reduction in cell invasion into collagen gel matrix at 20 uM incubated for 18 hrs; type: cell-based
[22] = molecular target: T1, Transmembrane 4 L6 family member 5 (Homo sapiens); test: Inhibition of TM4SF5 in human SNU449Tp cells assessed as reduction in cell invasion into Matrigel gel matrix at 20 uM incubated for 24 hrs; type: cell-based
[23] = molecular target: T1, Transmembrane 4 L6 family member 5 (Homo sapiens); test: Inhibition of TM4SF5 in human SNU449Tp cells assessed as reduction in MMP2 activity gel at 20 uM incubated for 24 hrs followed by medium exchange with serum-free medium and further incubated for 18 hrs by zymography; type: cell-based
[24] = molecular target: T1, Transmembrane 4 L6 family member 5 (Homo sapiens); test: Inhibition of TM4SF5 in human SNU449Tp cells assessed as reduction in MMP9 activity gel at 20 uM incubated for 24 hrs followed by medium exchange with serum-free medium and further incubated for 18 hrs by zymography; type: cell-based
[25] = test system: HCT-15; test: Cytotoxicity against human HCT15 cells assessed as reduction in cell viability by SRB assay; type: functional; settings: read-out: ED50 (the source's name)
[26] = test system: A549; test: Cytotoxicity against human A549 cells assessed as reduction in cell viability by SRB assay; type: functional; settings: read-out: ED50 (the source's name)
[27] = test system: PC-3; test: Cytotoxicity against human PC3 cells assessed as reduction in cell viability by SRB assay; type: functional; settings: read-out: ED50 (the source's name)

COc1ccc(C(=O)/C=C/c2ccc(O)cc2)cc1
inactive: Activity [2] | cell morphology effect (active/not active) [4]
active: Activity [1] | Activity [3]

O=C(/C=C/c1ccc(O)cc1)c1ccc(O)cc1
active: Activity [1] | Activity [3]
inactive: Activity [2] | cell morphology effect (active/not active) [4]

Cc1ccc(S(=O)(=O)Nc2ccc(C(=O)/C=C/c3ccc(O)cc3)cc2)cc1
active: inhibition [5] | inhibition [6] | inhibition [8] | inhibition [9] | inhibition [10] | inhibition [11] | inhibition [12] | inhibition [13] | inhibition [14] | inhibition [15] | inhibition [17] | inhibition [18] | inhibition [19] | inhibition [20] | inhibition [21] | inhibition [22] | inhibition [23] | inhibition [24] | cell morphology effect (active/not active) [4]
Non-Toxic: growth inhibition (GI) [7] | growth inhibition (GI) [16]

Cc1ccc(S(=O)(=O)Oc2ccc(C(=O)/C=C/c3ccc(O)cc3O)cc2)cc1
10 µg/mL: EC50 [26]
8 µg/mL: EC50 [25]

Nc1ccc(C(=O)/C=C/c2ccc(O)cc2)cc1
inactive: Activity [2] | cell morphology effect (active/not active) [4]
active: Activity [1] | Activity [3]

O=C(/C=C/c1ccc(O)c(O)c1)c1ccc(OS(=O)(=O)c2cccc(F)c2)cc1
8 µg/mL: EC50 [27]
7 µg/mL: EC50 [25]
